Structures can show the parent of a compound that is named as a salt. Where two headings read alike, the source gives them in different places.
Tests used:
Kappa opioid receptor = target: Kappa opioid receptor; parameters: method as in PMID 16125682; details: cited from earlier work
[1] = system: retinal ganglion cells (RGCs); details: for RGC loss (%): OD vs OS eye, mean ± SEM
Experimental: Hypertonic saline injection (HSI) was performed on day 0 and day 7 into the episcleral veins of the right eye of pigmented Brown Norway rats in order to create a sustained increase of IOP.
Over the course of the study, animals were clinically evaluated daily, and IOP and body weight measured weekly (Fig. 1a).
The number of RGCs was quantified using immunofluorescent staining for the RGC marker brain-specific homeobox/POU domain protein 3A (Brn-3a), followed by image analysis. RGCs were counted in one medial and one distal area in each retinal quadrant, up to eight regions per retina (Fig. 1c, Supp Table 4). The percent of RGC loss was calculated by comparing the number of RGC counts per retina in the OD eye to that in the OS eye. […] Rats were sedated with ketamine and xylazine (40–80 and 5–10 mg/kg, respectively), kept warm and eyes moist to avoid desiccation during the procedure. Eye surface was treated with erythromycin (0.5%). On Days 0 and 7, hypertonic saline solution (250 μL, NaCl, 1.8–2.0 M) was injected into the limbal vascular plexus via different episcleral veins in the OHT eye.
Eyes were immediately enucleated following CO2 euthanasia and fixed in paraformaldehyde (PFA, 4%) at 4 °C for 24 h, then dissected in PBS. Retinas were permeabilized in PBS + 0.5% Triton X-100 for 15 min, frozen at − 80 °C for 15 min, then rinsed in PBS-0.5% Triton. […] Four radial cuts were made in the retina and it was flat-mounted. Two regions of interest (medial and distal) were acquired in each quadrant with fluorescent microscopy, and RGCs counted using ImageJ.

[2] = system: retinal ganglion cells (RGCs); details: for Loss of RBPMS-positive RGCs, lasered vs control eye (difference): 14 days; for Number of RGCs per retinal area, mean: 125/55 criterion
Experimental: (§1) The laser coagulation (LC) model of experimental glaucoma was utilized in Wistar rats. Additional benefits of using this model are avoiding idiosyncratic features inherent to a single model and increasing the likelihood of future translatability to human glaucoma[28],[29]. Both models utilize elevation of IOP, but to different degrees and with different time courses. Unilateral induction of IOP elevation was performed twice, at day 0 and day 7. […] IOP was measured at baseline, and after laser photocoagulation on days 1, 4, 7, 8, and 14 (Fig. 3a). At the end of the study, RGC numbers were assessed by immunostaining (Fig. 3b).
The number of RGCs was quantified using immunofluorescent staining for RNA-binding protein with multiple splicing (RBPMS), an RGC-specific marker, followed by stereological analysis of the entire retina[30] (Fig. 3c).
IOP was measured with a TonoLab tonometer.
Compounds were administered daily by oral gavage. On day 14 rats were sacrificed by transcardial perfusion, first with 0.9% NaCl solution, then with 4% PFA in 0.1 M phosphate buffer, pH 7.4. Eyes and optic nerves were collected for immunohistochemical analysis.
Retinal flat-mounts were immunostained with rabbit anti-RBPMS (PhosphoSolutions) and DAPI nuclear stain. Total number of RBPMS-positive cells was estimated using stereology as previously described.

optic nerve axons = details: for Loss of optic nerve axons vs. control eye (difference): 14 days; for Number of optic nerve axons, mean: 125/55 criterion
Experimental: as §1
Neuroprotective preservation of visual function in glaucoma and other optic neuropathies depends not only on preservation of cell bodies, but also on maintaining connectivity between the eye and the brain. Connectivity is preserved by protecting RGC axons[31]–[33], i.e. axoprotection. To study this, the number of optic nerve axons per optic nerve area was compared between different treatment groups (Fig. 4a,b). […] Compounds were administered daily by oral gavage. On day 14 rats were sacrificed by transcardial perfusion, first with 0.9% NaCl solution, then with 4% PFA in 0.1 M phosphate buffer, pH 7.4. Eyes and optic nerves were collected for immunohistochemical analysis.
Optic nerves were postfixed in 4% PFA (in 0.1 M phosphate buffer, pH 7.4), placed in 1% osmium, dehydrated in ascending alcohol concentrations, and placed in 1% uranyl acetate in 100% ethanol for 1 h[76],[77]. Optic nerves were embedded in epoxy resin mixture at 60 °C for 48 h and 1 µm sections prepared. Axon number was estimated using stereology, as previously described.

[3] = system: mouse striatal neuronal cultures; details: 1 μM, 24 h
Experimental: Previous studies have shown a regulatory role of the S1R in mitochondrial function in retinal ganglion cells under stress[36]–[39]. […] (b) Quantification of OCR rate. […] Mitochondrial membrane potential was measured in isolated striatal mitochondria using Rhodamine123 (d) and quantified (e). […] Data are the mean ± SEM. All experiments were run in triplicates. *p < 0.05, **p < 0.01 by non-parametric Kruskal–Wallis test or Mann–Whitney test (in e).
Striatal neurons were isolated as previously described[78] from embryos at gestational day 16–17. […] Pridopidine was added for 24 h.

striatal neurons = details: 1 μM, 24 h; NMDA 10 µM + glycine 20 µM 15 min; p = 0.0072
Experimental: (§2) (b) Quantification of OCR rate. […] Mitochondrial membrane potential was measured in isolated striatal mitochondria using Rhodamine123 (d) and quantified (e). […] Data are the mean ± SEM. All experiments were run in triplicates. *p < 0.05, **p < 0.01 by non-parametric Kruskal–Wallis test or Mann–Whitney test (in e).
Striatal neurons were isolated as previously described[78] from embryos at gestational day 16–17.

[4] = system: isolated striatal mitochondria; details: 30 mg/kg daily for 45 days; p = 0.0013
Experimental: as §2

human lymphoblasts [5] = details: 5 μM pretreatment 24 h; H2O2 0.1 mM 6 h; p < 0.0001
Experimental: (§3) ROS levels were quantified by co-staining with CellRox and DAPI. (a) Representative image and (b) quantification. […] Data is the mean ± SEM. *p < 0.05, ***p < 0.001, ****p < 0.0001 by two-way ANOVA with a Tukey’s multiple comparisons in (b), by non-parametric Mann–Whitney in (d), or Kruskal–Wallis test in (c) and (e). Full-length blots are presented in Supplementary Fig. 2.
(§4) Lymphoblasts (Corriel Institute, GM02174) were grown in RPMI medium containing 10% FBS, 2 mM L-glutamax, and 100 U/mL penicillin–streptomycin and passaged every 5–6 days. […] S1R knockdown was achieved using S1R-directed siRNA duplexes (Origene, cat no: SR426072). Transfection with Polyplus JETPRIME transfection protocol was performed 48 h before experiments. S1R knockdown was assessed by immunoblot.

human lymphoblasts [6] = details: 5 µM, 24 h
Experimental: as §3
Mitochondrial function was then assessed with the MMP-dependent probe TMRE (tetramethylrhodamine ethyl ester).
as §4

S1R = details: cited from earlier work
[7] = target: empopamil binding protein (EBP); parameters: method as in PMID 11377189; details: cited from earlier work

Structure (SMILES): CC(C)=CCN1CC[C@]2(C)c3cc(O)ccc3C[C@H]1[C@H]2C [PTZ, (+)pentazocine]
- Ki (Kappa opioid receptor): 2.2 nM

Structure (SMILES): CCCN1CCC(c2cccc(S(C)(=O)=O)c2)CC1 [Pridopidine]
- RGC loss (%) ([1]; 3 mg/kg daily oral gavage day 1-41): 25 ± 7%
- Mean RGC count/animal ([1]; 3 mg/kg, OD eye): 105.25
- Mean RGC count/animal ([1]; 3 mg/kg, OS eye): 144.75
- RGC loss (%) ([1]; 30 mg/kg daily oral gavage day 1-41): 21 ± 6%
- Mean RGC count/animal ([1]; 30 mg/kg, OD eye): 122.78
- Mean RGC count/animal ([1]; 30 mg/kg, OS eye): 158.56
- RGC neuroprotection compared to vehicle control ([1]; 30 mg/kg, p = 0.019): 50%
- RGC loss (%) ([1]; 60 mg/kg daily oral gavage day 1-41): 7 ± 9%
- Mean RGC count/animal ([1]; 60 mg/kg, OD eye): 116.50
- Mean RGC count/animal ([1]; 60 mg/kg, OS eye): 130.40
- RGC neuroprotection compared to vehicle control ([1]; 60 mg/kg, p = 0.005): 83%
- Loss of RBPMS-positive RGCs, lasered vs control eye (difference) ([2]; 3 mg/kg daily oral): 5.2%
- Number of RGCs per retinal area, mean ([2]; 3 mg/kg, control eye): 1404
- Number of RGCs per retinal area, mean ([2]; 3 mg/kg, lasered eye): 1315
- Loss of RBPMS-positive RGCs, lasered vs control eye (difference) ([2]; 30 mg/kg daily oral): 7.7%
- Number of RGCs per retinal area, mean ([2]; 30 mg/kg, control eye): 1444
- Number of RGCs per retinal area, mean ([2]; 30 mg/kg, lasered eye): 1336
- Loss of RBPMS-positive RGCs, lasered vs control eye (difference) ([2]; 60 mg/kg daily oral): 13.9%
- Number of RGCs per retinal area, mean ([2]; 60 mg/kg, control eye): 1417
- Number of RGCs per retinal area, mean ([2]; 60 mg/kg, lasered eye): 1198
- Axoprotection of optic nerves compared to the vehicle group (optic nerve axons; 3 mg/kg): 69%
- Loss of optic nerve axons vs. control eye (difference) (optic nerve axons; 3 mg/kg daily oral, p = 0.006): 8.6%
- Number of optic nerve axons, mean (optic nerve axons; 3 mg/kg, control eye): 394
- Number of optic nerve axons, mean (optic nerve axons; 3 mg/kg, lasered eye): 358
- Axoprotection of optic nerves compared to the vehicle group (optic nerve axons; 30 mg/kg): 45%
- Loss of optic nerve axons vs. control eye (difference) (optic nerve axons; 30 mg/kg daily oral, p = 0.04): 15%
- Number of optic nerve axons, mean (optic nerve axons; 30 mg/kg, control eye): 433
- Number of optic nerve axons, mean (optic nerve axons; 30 mg/kg, lasered eye): 363
- Axoprotection of optic nerves compared to the vehicle group (optic nerve axons; 60 mg/kg): 74%
- Loss of optic nerve axons vs. control eye (difference) (optic nerve axons; 60 mg/kg daily oral, p = 0.002): 7.6%
- Number of optic nerve axons, mean (optic nerve axons; 60 mg/kg, control eye): 395
- Number of optic nerve axons, mean (optic nerve axons; 60 mg/kg, lasered eye): 365
- ATP production ([3]; p = 0.0015): significantly increases
- Maximal mitochondrial respiration ([3]; p = 0.0061): significantly increases
- Basal mitochondrial respiration ([3]; p = 0.0082): significantly increases
- Mitochondrial membrane potential (MMP) after NMDA plus glycine (striatal neurons): rescues the decrease in MMP
- MMP in isolated mitochondria from treated mice [4]: increase in MMP
- H2O2-induced ROS production (CellRox staining) (human lymphoblasts [5]): significantly ameliorated
- H2O2-induced reduction of MMP (TMRE) (human lymphoblasts [6]; S1R genetically silenced with siRNA): unable to rescue MMP
- H2O2-induced reduction of MMP (TMRE) (human lymphoblasts [6]; S1R-expressing cells, p = 0.0002): rescues this effect
- Ki (S1R): 57 nM

Structure (SMILES): COc1ccc(CCN2CCN(CCCc3ccccc3)CC2)cc1OC [SA4503, cutamesine dihydrochloride, reference compound]
- Ki (S1R): 17.4 nM
- Ki [7]: 1.72 nM

— article PMC8578336, “Neuroprotection of retinal ganglion cells by the sigma-1 receptor agonist pridopidine in models of experimental glaucoma” (Scientific Reports, 2021)
